Results reported in patent US20030225081A1, “Pyridazinones and triazinones and medicinal use thereof” (priority 2000, published 2003).

Tests used:
[1] = tested on: AMPA receptor; assay: Suppressing action to calcium influx into nerve cells induced by AMPA; type: cell-based; conditions: Fura2-AM, stimulation with 2 μM AMPA, primary culture of rat embryo cerebral cortex nerve cells, 1 μM MK-801
How it was run: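 Rat E18 cortical neurons grown on astrocyte feeder layers for 8–10 days or more, with 1 μM MK-801 in the medium. Cells were Fura2-AM-loaded for 1 h, then stimulated with 2 μM AMPA in Tyrode containing 1 μM MK-801. Calcium influx was read as the 340/380 nm excitation fluorescence change.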

[2] = tested on: convulsion induced by AMPA; assay: Anticonvulsant action induced by AMPA; type: in vivo, mice of ddy strain; conditions: 25 mg/kg orally, mice; AMPA injected into lateral ventricle 30 minutes or 1 hour after administration
Protocol: Anticonvulsant Action Induced by AMPA A test compound was suspended in a 0.5% methyl cellulose solution or in sesame oil and was orally administered (25 mg/kg) to male mice of ddy strain. After 30 minutes or 1 hour from the oral administration, AMPA was continuously injected ([…]/5 μl/minute/mouse) into lateral ventricle to induce the convulsions. The effect was judged by a time-extending action until the convulsion takes place by a continuous injection of AMPA.

SMILES | IC50 [1] | anticonvulsant action (time-extending action until the convulsion takes place) [2]
N#Cc1ccccc1-n1nc2c(c(-c3cccnc3)c1=O)COc1ccccc1-2 [Example 9, 2-(2-Cyanophenyl)-4-(3-pyridyl)-2,3-dihydro-5H-(1)benzopyrano[4,3-c]pyridazin-3-one] | 20 nM | significantly inhibited the convulsion induced by AMPA
O=C1C(c2ccccc2O)CC(c2ccccn2)=NN1c1ccccc1Br (centres unmarked) [Example 29, 2-(2-Bromophenyl)-4-(2-hydroxyphenyl)-6-(2-pyridyl)-4,5-dihydro-3 (2H)-pyridazinone] | 100 nM | significantly inhibited the convulsion induced by AMPA
N#Cc1ccccc1-n1nc(-c2ccccn2)cc(-c2cccnc2)c1=O [Example 45, 2-(2-Cyanophenyl)-4-(3-pyridyl)-6-(2-pyridyl)-3 (2H)-pyridazinone] | 200 nM | significantly inhibited the convulsion induced by AMPA
O=c1c(-c2cccnc2)cc(-c2ccccn2)nn1-c1ccccc1 [Example 59, 2-Phenyl-4-(3-pyridyl)-6-(2-pyridyl)-3 (2H)-pyridazinone] | 600 nM | significantly inhibited the convulsion induced by AMPA
O=C1N(c2ccccc2)CC(c2ccccn2)=NN1c1ccccc1Br [Example 88, 2-(2-Bromophenyl)-4-phenyl-6-(2-pyridyl)-4,5-dihydro-1,2,4-triazin-3 (2H)-one] | 100 nM | significantly inhibited the convulsion induced by AMPA
COc1ccccc1C1=NN(c2ccccc2C#N)C(=O)N(c2ccccc2)C1 [Example 97, 2-(2-Cyanophenyl)-6-(2-methoxyphenyl)-4-phenyl-4,5-dihydro-1,2,4-triazin-3 (2H)-one] | 700 nM | significantly inhibited the convulsion induced by AMPA
N#Cc1ccccc1N1N=C(c2ccccn2)CN(c2ccccc2)C1=O [Example 100, 2-(2-Cyanophenyl)-4-phenyl-6-(2-pyridyl)-4,5-dihydro-1,2,4-triazin-3 (2H)-one] | 50 nM | significantly inhibited the convulsion induced by AMPA
N#Cc1ccccc1N1N=C(c2ccccn2)CN(c2ccccn2)C1=O [Example 102, 2-(2-Cyanophenyl)-6-(2-pyridyl)-4-(2-pyridyl)-4,5-dihydro-1,2,4-triazin-3 (2H)-one] | 100 nM | significantly inhibited the convulsion induced by AMPA
N#Cc1ccccc1N1N=C(c2ccccn2)CN(c2cccnc2)C1=O [Example 103, 2-(2-Cyanophenyl)-6-(2-pyridyl)-4-(3-pyridyl)-4,5-dihydro-1,2,4-triazin-3 (2H)-one] | 100 nM | significantly inhibited the convulsion induced by AMPA
Cc1cccc(N2CC(c3ccccn3)=NN(c3ccccc3Br)C2=O)c1 [Example 124, 2-(2-Bromophenyl)-4-(3-tolyl)-6-(2-pyridyl)-4,5-dihydro-1,2,4-triazin-3 (2H)-one] | 200 nM | –
CSc1ccc(N2CC(c3ccccn3)=NN(c3ccccc3Br)C2=O)cc1 [Example 125, 2-(2-Bromophenyl)-4-(4-thiomethoxyphenyl)-6-(2-pyridyl)-4,5-dihydro-1,2,4-triazin-3 (2H)-one] | 600 nM | –
N#Cc1ccccc1N1N=C(c2ccccn2)CN(c2cccc([N+](=O)[O-])c2)C1=O [Example 127, 2-(2-Cyanophenyl)-4-(3-nitrophenyl)-6-(2-pyridyl)-4,5-dihydro-1,2,4-triazin-3 (2H)-one] | 400 nM | –
N#Cc1ccccc1N1N=C(c2ccccn2)CN(c2cccc(N)c2)C1=O [Example 128, 2-(2-Cyanophenyl)-4-(3-aminophenyl)-6-(2-pyridyl)-4,5-dihydro-1,2,4-triazin-3 (2H)-one] | 100 nM | –
O=C1N(c2ccccc2)CC(c2ncccn2)=NN1c1ccccc1Cl [Example 129, 2-(2-Chlorophenyl)-4-phenyl-6-(2-pyrimidinyl)-4,5-dihydro-1,2,4-triazin-3 (2H)-one.] | 3000 nM | –
